Laboratory results published in US11814681B2 (priority 2017, dated 2023).
Where “and” joins values, the source holds several entries; their conditions need not be identical. Equal entries are not always repeated.

Tests used:
[1] = in vivo; cited from earlier work
[2] = system: patients (Met allele carriers, Val/Val); settings: in vivo; cited from earlier work
[3] = human, in vivo
schizophrenia patients = settings: human, in vivo
[4] = human, in vivo; remark: listed apart in the source
[5] = system: patients (Met allele carriers, Val/Val); design: species or system human; settings: in vivo
[6] = human, in vivo; remark: listed apart in the source

| SMILES | effect on circulating proline levels [1] | blood level considered the lower end of the therapeutic range [2] | fasting plasma proline, mean ± SD [3] | effect on circulating proline [1] | difference in SANS total score, Val/Val versus Val/Met and Met/Met (regression coefficient) (schizophrenia patients) | β (95% CI), bivariate association of treatment with total SANS score (schizophrenia patients) | fasting plasma proline versus patients who did not receive the drug [4] | patients showing improvement in negative symptoms after treatment onset [5] | fasting L-serine level [6] | fasting glycine level [6] |
| --- | --- | --- | --- | --- | --- | --- | --- | --- | --- | --- |
| CCO [Ethanol] | increases |  |  |  |  |  |  |  |  |  |
| CCCC(CCC)C(=O)O [VPA, 2-propylpentanoic acid] |  | 50 µg/mL | 299.29±94.76 | upregulates | −12.17 | −0.578 (−7.157, 6.001) | significantly higher | 2 out of 9 and 5 out of 7 | 117 µM | 361 µM |
